Measurements: patent US20170240543A1, “CRYSTALLINE FORMS OF PALBOCICLIB” (Sun Pharmaceutical Industries Limited, priority 2014, published 2017)

Tests used:
[1] = Filterability, electrostatic nature and flowability of the solid; type: physicochemical; details: no comparator stated
[2] = Specific surface area (Micromeritic Gemini VII 2390 Surface Analyzer); type: physicochemical
Description: Specific surface area was determined using a Micromeritic® Gemini® VII 2390 Surface Analyzer (Software: Gemini VII, version 1.03).

filterability, electrostatic nature, and flowability [1]: improved
specific surface area (SSA) [2]: greater than 2 m^2/g
SMILES: CC(=O)c1c(C)c2cnc(Nc3ccc(N4CCNCC4)cn3)nc2n(C2CCCC2)c1=O [Form V-A, 6-acetyl-8-cyclopentyl-5-methyl-2-[[5-(1-piperazinyl)-2-pyridinyl]amino]pyrido[2,3-d]pyrimidin-7(8H)-one]
